In US10682371B2, “Small molecule conjugates specifically activated in tumor microenvironment for targeting and use thereof” (priority 2014, dated 2020):
Like-named read-outs stand apart in the source and are kept apart here.

Experiments:
[1] = system: D121 lung tumor cells; assay type: in vivo, C57 mice; conditions: for Size of tumor (mm^3) Day 18 / inhibitory rate on tumor % Day 18: immunized C57 mice; for Treatment effects on C57 mice, in words: compared to the control group and the other treatment groups; for Effect together with PDL1-antibody in promoting immunization and treatment, in words: combination with PDL1-antibody
How it was run: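 Endpoint is tumor inhibition rate from tumor size (mm^3) after weekly drug treatment for 4 weeks, begun once s.c. tumors from 10^6 live D121 cells reached 0.3-0.4 cm. Before challenge, C57 mice received three i.p. doses of 5×10^5 irradiated D121 cells, two weeks apart, or saline.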

[2] = system: tumor CD8+ T cells; assay type: in vivo, C57 mice; conditions: CD8 positive cells in CD45 positive cells of tumor, flow cytometry
How it was run: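 Flow cytometric ratio of CD8⁺ to CD45⁺ cells in dissociated tumour. Cell suspensions were labelled with CD45-PE and CD8-FITC for 1 h at room temperature, then washed twice in phosphate buffer with 1% fetal bovine serum.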

[3] = system: Human breast cancer MDA-MB435 tumor tissue homogenate; assay type: biochemical
Description: (§1) At 37 °C, sample compounds were added into 100 μg acidized tumor tissue homogenates (pH6.0) in a concentration of 1 mg/ml.
(§2) At 37 °C, sample compounds were added into 100 μg acidized human breast cancer (MDA-MB435) tumor tissue homogenates (pH6.0) in a concentration of 1 mg/ml.
(§3) […], sample compounds were added into 100 μg acidized tumor tissue homogenates (pH6.0) in a concentration of 1 mg/ml.
as §2
(§4) At 37 °C, sample compounds were added into 100 μg acidized tumor tissue homogenates in a concentration of 1 mg/ml.
(§5) In the experiments, at 37 °C, compounds were added into proteases in 100 μg acidized tumor tissue homogenates in a concentration of 1 mg/ml. […] Meanwhile certain compounds produced in the screening were compared and their activation efficiency in same tissue was analyzed.
(§6) At 37° C., compounds were added into proteases in 100 μg acidized tumor tissue homogenates in a concentration of 1 mg/ml.

[4] = system: Human colon cancer HT-29 tumor tissue homogenate; assay type: biochemical; conditions: Human colon cancer HT-29, 1 mg/ml
Description: as §1, §3, §4, §5, §6

[5] = system: Human liver cancer Hepg2 tumor tissue homogenate; assay type: biochemical; conditions: Human liver cancer Hepg2, 1 mg/ml
Description: as §1, §3, §4, §5, §6

[6] = system: Human ovarian cancer SK-OV-3 tumor tissue homogenate; assay type: biochemical; conditions: Human ovarian cancer SK-OV-3, 1 mg/ml
Description: as §1, §3, §4, §5, §6

[7] = system: Human renal cancer OS-RC-2 tumor tissue homogenate; assay type: biochemical; conditions: Human renal cancer OS-RC-2, 1 mg/ml
Description: as §1, §3, §4, §5, §6

[8] = system: Human pancreatic cancer Panc-1 tumor tissue homogenate; assay type: biochemical; conditions: Human pancreatic cancer Panc-1, 1 mg/ml
Description: as §1, §3, §4, §5, §6

[9] = system: Human prostate cancer PC-3 tumor tissue homogenate; assay type: biochemical; conditions: Human prostate cancer PC-3, 1 mg/ml
Description: as §1, §3, §4, §5, §6

[10] = system: Human non-small cell lung cancer A549 tumor tissue homogenate; assay type: biochemical; conditions: Human non-small cell lung cancer A549, 1 mg/ml
Description: as §1, §3, §4, §5, §6

[11] = system: Human chronic leukemia K562 tumor tissue homogenate; assay type: biochemical; conditions: Human chronic leukemia K562, 1 mg/ml
Description: as §1, §3, §4, §5, §6

[12] = Table 27, D121 lung tumor, drugs weekly for 4 weeks
[13] = Table 27, immunized C57 mice, D121
[14] = Human breast cancer MDA-MB435, 1 mg/ml, acidized homogenate pH6.0, Paclitaxel release by HPLC
[15] = acidized homogenate pH6.0, Paclitaxel release by HPLC
[16] = Table 39, D121, drugs 13.2 μmol/kg, PDL1-antibody 5 μg/kg, weekly for 4 weeks
[17] = Table 34, acidized homogenate, Docetaxel release by HPLC
[18] = Table 49, D121, drugs 13.2 μmol/kg, PDL1 antibody 5 μg/kg, weekly for 4 weeks
[19] = Table 45, acidized homogenate, Docetaxel release by HPLC

Compound | Size of tumor (mm^3) Day 18 [1, 12] [mm^3] | inhibitory rate on tumor % Day 18 [1, 12] [%] | Treatment effects on C57 mice, in words [1] | CD8: CD45 (%) [2, 13] [%] | Activation ratio (%) in homogenates from different tumor tissues [3, 14] [%] | Activation ratio (%) in homogenates from different tumor tissues [4, 15] [%] | Activation ratio (%) in homogenates from different tumor tissues [5, 15] [%] | Activation ratio (%) in homogenates from different tumor tissues [6, 15] [%] | Activation ratio (%) in homogenates from different tumor tissues [7, 15] [%] | Activation ratio (%) in homogenates from different tumor tissues [8, 15] [%] | Activation ratio (%) in homogenates from different tumor tissues [9, 15] [%] | Activation ratio (%) in homogenates from different tumor tissues [10, 15] [%] | Activation ratio (%) in homogenates from different tumor tissues [11, 15] [%] | Effect together with PDL1-antibody in promoting immunization and treatment, in words [1] | further results
COCCOCCOCCOCCOCCOCC(=O)NCCCC[C@H](NC(=O)COCCOCCOCCOCCOCCOC)C(=O)N[C@H](C)C(=O)N[C@H](C)C(=O)N[C@H](CC(N)=O)C(=O)Nc1ccc(COC(=O)OC(C(=O)OC2C[C@@]3(O)[C@@H](OC(=O)c4ccccc4)[C@H]4[C@](C)(C(=O)[C@H](OC(C)=O)C(=C2C)C3(C)C)[C@@H](O)CC2OC[C@]24OC(C)=O)[C@@H](NC(=O)c2ccccc2)c2ccccc2)cc1 (stereo partly shown) [Compound A2] | 375.727 ± 247.3 | 77.74 | greatly improved | 19.4 | 94.4 | 92.9 | 87.6 | 88.6 | 94.5 | 93.8 | 101.4 | 92.4 | 76.3 | – | –
COCCOCCOCCOCCOCCOCCOCCOCCOCCOCCOCCOCC(=O)NCCCC[C@H](NC(=O)COCCOCCOCCOCCOCCOCCOCCOCCOCCOCCOCCOC)C(=O)N[C@H](C)C(=O)N[C@H](C)C(=O)N[C@H](CC(N)=O)C(=O)Nc1ccc(COC(=O)OC(C(=O)OC2C[C@@]3(O)[C@@H](OC(=O)c4ccccc4)[C@H]4[C@](C)(C(=O)[C@H](OC(C)=O)C(=C2C)C3(C)C)[C@@H](O)CC2OC[C@]24OC(C)=O)[C@@H](NC(=O)c2ccccc2)c2ccccc2)cc1 (stereo partly shown) [Compound A3] | 360.393 ± 312.7 | 78.65 | greatly improved | 17.3 | 93.4 | 94.6 | 86.5 | 82.8 | 89.4 | 94.5 | 99.3 | 84.4 | 73.2 | – | activation efficiency (%) ([3]; Table 24, acidized human breast cancer (MDA-MB435) tumor tissue homogenates pH6.0, 1 mg/ml, Paclitaxel release by HPLC): 94.5%
COCCOCC(=O)NCCCC[C@H](NC(=O)COCCOC)C(=O)N[C@H](C)C(=O)N[C@H](C)C(=O)N[C@H](CC(N)=O)C(=O)Nc1ccc(COC(=O)OC(C(=O)OC2C[C@@]3(O)[C@@H](OC(=O)c4ccccc4)[C@H]4[C@](C)(C(=O)[C@H](O)C(=C2C)C3(C)C)[C@@H](O)CC2OC[C@]24OC(C)=O)[C@@H](NC(=O)OC(C)(C)C)c2ccccc2)cc1 (stereo partly shown) [Compound B1] | – | – | greatly improved | – | – | – | – | – | – | – | – | – | – | excellent synergistic effect | Size of tumor (mm^3) Day 18 [1, 16]: 271.36 ± 157.56 mm^3; inhibitory rate on tumor % Day 18 [1, 16]: 83.25%; CD8: CD45 (%) ([2]; Table 39, drugs 13.2 μmol/kg, PDL1-antibody 5 μg/kg): 18.9%; activation efficiency (%) ([3]; Table 34, Human breast cancer MDA-MB435, 1 mg/ml, acidized homogenate, Docetaxel release by HPLC): 93.5%; activation efficiency (%) [4, 17]: 83.9%; activation efficiency (%) [5, 17]: 76.3%; activation efficiency (%) [6, 17]: 93.1%; activation efficiency (%) [7, 17]: 90.9%; activation efficiency (%) [8, 17]: 86.9%; activation efficiency (%) [9, 17]: 76.1%; activation efficiency (%) [10, 17]: 91.2%; activation efficiency (%) [11, 17]: 69.0%
COCCOCC(=O)N[C@H](C)C(=O)N[C@H](C)C(=O)N[C@H](CC(N)=O)C(=O)Nc1ccc(COC(=O)OC(C(=O)OC2C[C@@]3(O)[C@@H](OC(=O)c4ccccc4)[C@H]4[C@](C)(C(=O)[C@H](O)C(=C2C)C3(C)C)[C@@H](O)CC2OC[C@]24OC(C)=O)[C@@H](NC(=O)OC(C)(C)C)c2ccccc2)cc1 (stereo partly drawn) [Compound D1, 2-(2-methoxyethoxy) acetyl-L-Ala-L-Ala-L-Asn-4-amino benzyl-Docetaxel] | – | – | greatly improved | – | – | – | – | – | – | – | – | – | – | excellent synergistic effect | Size of tumor (mm^3) Day 18 [1, 18]: 324.45 mm^3; inhibitory rate on tumor % Day 18 [1, 18]: 77.2%; CD8: CD45 (%) ([2]; Table 49, drugs 13.2 μmol/kg, PDL1 antibody 5 μg/kg): 18.5%; Activation ratio (%) in homogenates from different tumor tissues ([3]; Table 45, Human breast cancer MDA-MB435, 1 mg/ml, acidized homogenate, Docetaxel release by HPLC): 83.07%; Activation ratio (%) in homogenates from different tumor tissues [4, 19]: 71.46%; Activation ratio (%) in homogenates from different tumor tissues [5, 19]: 85.77%; Activation ratio (%) in homogenates from different tumor tissues [6, 19]: 79.56%; Activation ratio (%) in homogenates from different tumor tissues [7, 19]: 77.76%; Activation ratio (%) in homogenates from different tumor tissues [8, 19]: 85.32%; Activation ratio (%) in homogenates from different tumor tissues [9, 19]: 87.57%; Activation ratio (%) in homogenates from different tumor tissues [10, 19]: 77.76%; Activation ratio (%) in homogenates from different tumor tissues [11, 19]: 68.23%
